In article PMC12031237, “Toxicity Assessment of (4Z)-Lachnophyllum and (4Z,8Z)-Matricaria Lactones: Implications for Environmental Safety of Bioherbicides” (Toxins, 2025):
≈ marks a conversion by molar mass, not a printed value. Where “and” joins values, the source holds several entries; their conditions need not be identical. Identical values can stand only once. Entries after “also recorded” stand apart in the source; their conditions may differ. Like-named read-outs stand apart in the source and are kept apart here.

Legend:
[1] = Stability (photodegradation) in ISO 8692:2012 medium, quantified by HPLC; type: physicochemical; conditions: 20 °C, 254 nm light
Method: For the photodegradation assays, 3 mg of MAT and 3 mg of LAC were separately dissolved in 150 µL of DMSO and added to 3 mL of International Organization for Standardization (ISO) 8692:2012 medium. The solutions were exposed to 254 nm of light for up to 16 days. At specific time intervals (1, 2, 3, 6, and 16 days), 400 µL of the solutions were collected and analyzed by TLC using n-hexane/EtOAc (75:25, v/v) as the eluent, with MAT and LAC standard samples serving as references.
HPLC analysis was performed in isocratic mode and with the same ISO medium solutions, using MeCN–H2O (0.1% v/v formic acid) at a 60:40 (v/v) ratio as the mobile phase, with a flow rate of 0.5 mL/min. Detection was carried out at 220 nm with a 20 μL injection loop, monitoring the chromatogram for over 50 min to identify potential degradation products. Each sample was analyzed in triplicate. Control solutions containing only the culture medium and DMSO (without MAT or LAC) were also analyzed under identical conditions to ensure specificity.
Calibration curves for MAT and LAC were prepared by injecting standard samples at concentrations ranging from 0.022 to 2.2 mg for MAT and 0.004 to 2.2 mg for LAC. These standards were used to optimize the method and quantify the degradation products.

A. fischeri = experiment: Bioluminescence (light) inhibition test, ISO 11348-3; conditions: for EC50 / inhibition at 3.125 µg/mL: Aliivibrio fischeri, 0.5 h; for EC50: read-out: EC50 (light inhibition), 30 min exposure; for inhibition at 3.125 µg/mL: read-out: light inhibition
Method: The bioluminescence inhibition test (30 min) was detected with the A. fischeri (NRRLB-11177) supplied by MicroBioTest, Gent, Belgium, and according to ISO 11348-3 [59]. The bioluminescence was determined by the luminometer Microtox (Model 500 analyzer, New Castle, DE, USA) at 490 nm. To provide the required osmotic pressure for the bacterium, the stock solution was diluted to perform the test in saline water solution (2% sodium chloride, NaCl). The concentrations tested correspond to 0.19, 0.39, 0.78, 1.56, and 3.12 mg L^−^1 and a negative control of 0 mg L^−^1. Toxicity tests were performed in triplicate with a control, and the percentage luminescence inhibition was expressed as the ratio of the decrease in bacterial light production to the remaining light.
(§1) Data analysis was conducted using RStudio for Windows (Version 2024.09.1). Dose–response models were applied to estimate the effective concentrations (EC10 and EC50) for the tested endpoints using the “drc” package. For D. magna, the data were modeled with a binomial log-logistic approach, whereas data for R. subcapitata, A. fischeri and L. sativum were fitted to log-logistic models with the upper limit constrained to 100. Furthermore, to ensure assay sensitivity and validity, a positive control exposed to potassium dichromate for the aquatic species and copper chloride for C. elegans was tested under the same experimental conditions.

R. subcapitata = experiment: Algal growth inhibition test, ISO 8692; conditions: for Test Score / EC10 (growth inhibition): 72 h exposure; for EC50 / inhibition at 3.125 µg/mL: Raphidocelis subcapitata; for EC50: read-out: EC50 (growth inhibition); for inhibition at 3.125 µg/mL: read-out: growth inhibition
Method: The algal growth inhibition test (72 h) with R. subcapitata was carried out according to ISO 8692 [58]. The algal density was determined by spectrophotometric analysis (DR5000, Hach Lange GbH, Weinheim, Germany) at 670 nm. The concentrations tested correspond to 0.19, 0.39, 0.78, 1.56, and 3.12 mg L^−^1 and a negative control of 0 mg L^−^1. The growth inhibition was calculated as the difference in growth at the end of the test of the sample and the control group. Toxicity tests were carried out in triplicate.
as §1

D. magna = experiment: Crustacean immobility acute test, ISO 6341; type: in vivo, Daphnia magna; conditions: for immobilization: 6.91 mg L^−1, 24 h exposure; for EC50: Daphnia magna, read-out: EC50 (immobilization); for Hazard Ranking: GHS ranking of 48 h EC50, this study
Method: The immobility acute test (48 h) with D. magna was conducted according to ISO 6341 [60]. D. magna was selected from laboratory stock cultures at the Hygiene Laboratory of the Department of Biology of the University of Naples Federico II, placed in ISO medium, and fed daily with the microalgae R. subcapitata. For the test, five neonates (third brood, <24 h old) were exposed in 10 mL of ISO medium to the following corresponding concentrations: 0.22, 0.43, 0.86, 1.73, 3.46, 6.91, 13.83, 27.65, and 55.30 mg L^−^1 and a negative control of 0 mg L^−^1. Each concentration had 4 replicates, and immobility was assessed after 24 and 48 h of exposure.
as §1

C. elegans = experiment: Nematode survival bioassay in soil, ASTM E2172-01; type: in vivo; conditions: for mortality: 24 h exposure, across tested concentrations (1.73 to 94 mg L^−1); for Test Score: N2, Bristol variant (wild type), Caenorhabditis elegans, in vivo, 24 h
Method: The nematode bioassay was carried out using the Caenorhabditis elegans wild-type strain N2, Bristol variant, according to the ASTM E2172—01 Standard Method (2014). Culture was maintained on NGM (nematode growth media) plates seeded with Escherichia coli (uracil-deficient OP50 strain) and stored at 20 °C. The tests were conducted using age-synchronized adult nematodes, obtained by lysing gravid nematodes with a bleaching solution (10 g/L NaOH, 10.5 g/L NaOCl), followed by centrifugation and washing with an M9 mineral medium (2.2 mM KH2PO4, 4.2 mM Na2HPO4, 85.6 mM NaCl, and 1 mM MgSO4). The synchronized nematodes were then transferred to NGM agar plates and left to recover overnight.
Soil samples (2.33 g) were hydrated to 35–45% of their dry weight using K-medium in centrifuge tubes. Ten worms were transferred to each tube and exposed to the soil samples for 24 h at 20 °C. […] Treatments were performed in triplicate, with worms kept unfed during the exposure period. Nematodes were extracted by centrifugation (2000 rpm, 2 min) using silica gel (Ludox TM 50, Sigma-Aldrich, St. Louis, MO, USA) with a specific density of 1.13 g/mL. The supernatant was then transferred to 100 mm glass Petri dishes and washed with Keller (K) medium. Extracted individuals were counted under a microscope (40× magnification), with mortality as the measured endpoint. Test validity required a minimum of 80% nematode recovery and 90% survival in the control group.

L. sativum = experiment: Plant germination and growth phytotoxicity test; type: in vivo, Lepidum sativum; conditions: 72 h exposure; for germination: tested concentrations up to 94 mg L^−1; for EC50: Lepidium sativum, read-out: EC50 (shoot length)
Method: Lepidum sativum seeds were purchased from Microbiotests (Gent, Belgium) and were used for the phytotoxicity test. Tests were conducted following the standard method. Seeds (n = 10) were placed in 10 g of soil medium and exposure was carried out in triplicates. […] Germination (%) and root elongation inhibition were combined to calculate the germination index (GI, %).

[2] = Hazard classification and weight score over the test battery; conditions: for hazard classification: classes I (no acute hazard) to V (very high acute hazard); for Weight Score [%]: overall, all tests performed
Method: When possible, the EC50 values derived from the tests were used for toxicity classification following the methodology in [65]. Compounds were categorized into five hazard classes, ranging from Class I (no acute hazard) to Class V (very high acute hazard). Additionally, weight scores for each test were calculated to quantify the relative level of toxicity, with scores assigned as follows: 0 (no significant toxic effect), 1 (significant toxic effect), 2 (toxic effect), and 3 (100% toxic effect). The weight score for each compound, based on the tests performed, was expressed as a percentage.

[3] = 30 min exposure, standard error in brackets, n = 3
[4] = estimated from the model, outside of the tested concentrations
[5] = standard error in brackets, n = 3

| SMILES | Degraded Compound (%) ([1]; exposition time 1 day) | Degraded Compound (%) ([1]; exposition time 2 days) | Degraded Compound (%) ([1]; exposition time 3 days) | Degraded Compound (%) ([1]; exposition time 6 days) | Test Score (A. fischeri; 30 min exposure) | EC10 (light inhibition) (A. fischeri; [3]) | inhibition at 3.125 µg/mL (A. fischeri) [%] | Test Score (R. subcapitata) | EC50 (R. subcapitata; 72 h) [µg/mL] | inhibition at 3.125 µg/mL (R. subcapitata; 72 h) [%] | immobilization (D. magna) [%] | EC10 (immobilization) (D. magna; 24 h exposure) | EC10 (immobilization) (D. magna; 48 h exposure) | EC50 (immobilization) (D. magna; 48 h exposure) [µg/mL] | Test Score (D. magna; 48 h exposure) | EC50 (D. magna; 24 h, 24 h exposure) [µg/mL] | EC50 (D. magna; 48 h, 48 h exposure) [µg/mL] | Hazard Ranking (D. magna) | mortality (C. elegans) | Test Score (C. elegans) | other results |
| --- | --- | --- | --- | --- | --- | --- | --- | --- | --- | --- | --- | --- | --- | --- | --- | --- | --- | --- | --- | --- | --- |
| CCCC#C/C=C1/C=CC(=O)O1 [LAC, (4Z)-lachnophyllum lactone] | 8.5% | 19.23 | 26.58 | 28.24 | 1 | 0.524 mg L^−1 and 0.524 (0.212) mg L^−1 | < 40 | 1 | 9.88 (≈ 60.9 µM) | 36 | 100 | 1.67 (0.313) mg L^−1 | 1.499 mg L^−1 and 1.49 (1.063) mg L^−1 | 1.728 (≈ 10.7 µM) | 3 | 2.44 (≈ 15 µM) | 1.72 (≈ 10.6 µM) | *** (toxic (<1 mg L^−1 ≤ 10 mg L^−1)) | no mortality | 0 | EC50 (light inhibition) (A. fischeri; 30 min exposure, estimated from the model, outside of the tested concentrations): 8.078 µg/mL (≈ 49.8 µM); EC50 (A. fischeri; [4]): 8.07 µg/mL (≈ 49.8 µM); EC10 (growth inhibition) (R. subcapitata; [5]): 0.304 mg L^−1 and 0.304 (0.125) mg L^−1; EC10 (shoot length) (L. sativum): 70.87 mg L^−1 and 70.87 (195.32) mg L^−1; Test Score (L. sativum): 3; germination (L. sativum): no effects; also recorded: unaffected; EC50 (L. sativum): 85.9 µg/mL (≈ 530 µM); hazard classification [2]: Class II; Weight Score [%] [2]: 53.33% |
| C/C=C\C#C/C=C1/C=CC(=O)O1 [MAT, (4Z,8Z)-matricaria lactone] | 90% and 89.74% | 90.06 | 90.38 | 94.55 | 2 | 0.063 mg L^−1 and 0.063 (0.013) mg L^−1 | ~80 | 0 | 4.52 (≈ 28.2 µM) | -2.4 | 100 | 3.11 (1.894) mg L^−1 | 1.215 mg L^−1 and 1.21 (0.294) mg L^−1 | 2.239 (≈ 14 µM) | 3 | 3.56 (≈ 22.2 µM) | 2.23 (≈ 13.9 µM) | *** (toxic (<1 mg L^−1 ≤ 10 mg L^−1)) | no mortality | 0 | EC50 (A. fischeri; [5]): 0.642 µg/mL (≈ 4.01 µM); growth inhibition (average) (R. subcapitata; 72 h, concentrations 0.19 to 1.56 mg L^−1, negative = stimulation): approximately −10%; EC10 (growth inhibition) (R. subcapitata; [4]): 3.417 mg L^−1 and 3.417 (0.620) * mg L^−1; EC10 (shoot length) (L. sativum): 38.48 mg L^−1 and 38.48 (23.979) mg L^−1; Test Score (L. sativum): 2; germination (L. sativum): no effects; also recorded: unaffected; EC50 (L. sativum): 82.3 µg/mL (≈ 514 µM); hazard classification [2]: Class II; Weight Score [%] [2]: 46.66% |
